# Literature values, collected in patent US20190358240A1, “HIV TREATMENT FORMULATION OF ATAZANAVIR AND COBICISTAT” (BRISTOL-MYERS SQUIBB COMPANY, priority 2013, published 2019).
# Details: human, in vivo
structure (smiles),measurement,value
"COC(=O)N[C@H](C(=O)N[C@@H](Cc1ccccc1)[C@@H](O)CN(Cc1ccc(-c2ccccn2)cc1)NC(=O)[C@@H](NC(=O)OC)C(C)(C)C)C(C)(C)C [Atazanavir, methyl N-[(1S)-1-{[(2S,3S)-3-hydroxy-4-[(2S)-2-[(methoxycarbonyl)amino]-3,3-dimethyl-N′-{[4-(pyridin-2-yl)phenyl]methyl}butanehydrazido]-1-phenylbutan-2-yl]carbamoyl}-2,2-dimethylpropyl]carbamate]",Accumulation at steady state,2-3 fold
same,Time to steady state,4 to 8 days
same,Tmax,~2.5 h
